Experimental data: US10111847B2, “Compounds and methods for modulating vascular injury” (The Regents of the University of California, priority 2012, dated 2018)

What was measured:
human sv-VSMCs = test: PDGF-BB induced VSMC cell-shape measurement (phalloidin); assay type: cell-based; details: 100 nM, 30 min; PDGF-BB 50 ng/ml 1 hr
Experimental: Cells were cultured in 8-well chamber slides (3,000 cells/well) and pretreated with MaR-1 or vehicle (0.1% ethanol) for 30 min followed by the addition of PDGF-BB (50 ng/ml) for 1 h. Cells were washed twice in phosphate-buffered saline (PBS), permeabilized with 0.1% Triton-X, and then fixed in 4% formaldehyde, labeled with Alexa Fluor 568 phalloidin (Invitrogen) and DAPI, and then mounted on glass slides. Cell area and length/width ratio were determined by outlining the cell dimensions and computing 2-dimensional area using GIMP image analysis software (GIMP, freeware; www.gimp.org). For each condition, dimensions were measured from 30 randomly selected cells, and all treatment conditions were performed in triplicate.
Human sv-VSMCs cultured in chamber slides were treated with 7S-Maresin-1 at 100 nM or vehicle for 30 min, followed by PDGF-BB, 50 ng/ml for 1 hr. Cells were then fixed, permeabilized and stained with phalloidin (Life technologies).
FIGS. 21A-21E. (A) Vehicle Control. (B) PDGF-BB, 50 ng/ml. (C) 7S-Maresin-1, 100 nm+PDGF-BB, 50 ng/ml. (D) 7S-Maresin-1, 100 nm+pertussis toxin, 10 ng/ml+PDGF-BB, 50 ng/ml. (E) Graphical summary of N=4 per group. P≤0.01, One-way ANOVA with Dunnett's post hoc test. *P<0.05 compared to PDGF-BB (50 ng/ml). †: P≤0.05 compared to PDGF-BB alone, unpaired t-test. ‡: P≤0.05 compared to PDGF-BB+7S-Maresin-1, unpaired t-test. Error bars: SEM.

NOX4 = test: TNFα induced NADPH-oxidase 4 expression, western blot; assay type: cell-based, human; details: 30 min pretreatment, TNFα 10 ng/ml 4 hr; sv-VSMCs
Experimental: Mar-1. VSMCs and ECs were lysed in buffer (20 mM Tris-Hcl, 137 mM NaCl, 10% Glycerol, 1% NP-40) with protease and phosphatase inhibitors (Halt inhibitor capsules, Pierce, Inc) by sonication on ice. The lysates were instantly snap frozen in liquid nitrogen and thawed back later for western blotting. After centrifugation (15,000 g for 20 minutes), the whole cell extract (supernatant) was collected and was heated at 100° C. in Laemlli buffer for 6 minutes. Lysates were run on Mini-Protean TGX gels
(Biorad) and transferred on PVDF membranes which were probed with appropriate primary and secondary antibodies and visualized for quantitation using q-dot nanocrystals (Life Technologies, Inc).
NADPH oxidases (NOX) are the dominant source of superoxide generation in blood vessels and have been strongly implicated in vascular injury. NOX4 is a dominant isoform bound in VSMC and blood vessels. Regulation of NOX4 expression and activity therefore is of interest. Human sv-VSMCs were pretreated with 7S-Maresin-1 or vehicle for 30 min, followed by TNFα at 10 ng/ml for 4 hr. Whole cell lysates were blotted for NOX4 (Abcam Inc.) and beta-actin (Sigma).
FIG. 14. NOX4 and beta-actin western blotting image is representative of three independent experiments. Bar graph represents net quantitative densitometry analysis. N=3. […]

ICAM-1, IL-1β, and IL-1α = test: Gene expression in VSMC in presence or absence of pertussis toxin (PTX); assay type: cell-based, human; details: RvD2 10 nM; PTX 100 ng/ml; TNF-α
Experimental: Cells are plated onto 6-well plates at 100% confluency in DMEM plus 10% FBS and allowed to attached overnight. Cells are then made quiescent by placing in serum-free media for 48-72 hours prior to start of experiments. Cells are treated with or without RvD1 or RvD2 at the indicated concentrations for one hour followed by co-incubation with cytokine (TNF-α 10 ng/ml) for up to 18 hours. In a separate set of experiments to examine the role of G-protein receptors, VSMCs are exposed to TNF-α and RvD2 (10 nM) as described above, in the presence or absence of pertussis toxin (PTX 100 ng/ml). Total RNA from rabbit sample or cells is isolated with PureLink RNA Mini kit (Ambion Life Technologies, Carlsbad, Calif.) with RNase-free DNase treatment according to manufacturer's protocol. One microgram of total RNA (from either VSMC or rabbit tissue) is used to generate cDNA using High Capacity cDNA Reverse Transcription Kit (Applied Biosystems, Foster City, Calif.) for subsequent RT-PCR reactions. Sybrgreen Amplified DNA is detected by incorporation SYBR Green (Qiagen, Germantown, Md.). […]
FIG. 9: Effects of RvD2 on gene expression in VSMC are sensitive to pertussis toxin (PTX). […] RNA was harvested and analyzed for the expression of ICAM-1, IL-1β, and IL-1α by qPCR (n=3, results are mean±SEM, **P<0.01, *P<0.05, one-way ANOVA followed by Bonferroni's post hoc test).

| SMILES | PDGF-BB induced vascular smooth muscle cell shape change (human sv-VSMCs) | TNFα induced NADPH-oxidase 4 expression (NOX4) | effect of pertussis toxin on inhibition of ICAM-1, IL-1β, and IL-1α gene expression (ICAM-1, IL-1β, and IL-1α) |
| --- | --- | --- | --- |
| CC/C=C\C/C=C\C[C@H](O)\C=C/C=C/C=C/[C@@H](O)C/C=C\CCC(=O)O [7S-Maresin-1, 7S,14R-dihydroxydocosa-4Z,8E,10Z,12Z,16Z,19Z-hexaenoic acid] | Alters | Attenuates |  |
| CC/C=C\C[C@H](O)[C@H](O)/C=C/C=C/C=C\C=C\[C@@H](O)C/C=C\CCC(=O)O [RvD2, resolvin D2] |  |  | abrogation of the inhibitory effects |
